Measurements published in US12173018B2, “Penicillin-binding protein inhibitors” (priority 2018, dated 2024).
pEC50: −log10 of the molar value. Values after ≈ are worked out from the molar mass of the structure shown. Where two headings read alike, the source gives them in different places.

How the values were obtained:
N. gonorrhoeae WHO F = assay: Liquid broth MIC, N. gonorrhoeae WHO F; format: cell-based; conditions: Neisseria gonorrhoeae; N. gonorrhoeae WHO F, liquid broth; read-out: Minimum Inhibitory Concentration, N. gonorrhoeae WHO F
Experimental: (§1) Additional antibacterial testing of the series was performed in wild-type reference strains of N. gonorrhoeae (ATCC 49226, FA1090, WHO F and FA19). Liquid broth-based assays were used for antibacterial testing of PBP inhibitors in Neisseria gonorrhoeae. Briefly, cryo-preserved bacterial cultures of clinical strains are streaked for isolation on GC Base agar (BD #228950 at 36 g/L autoclaved at 121° C. for 20 minutes to sterilize) with 1% Kellogg's supplement (40 g glucose, 0.5 g glutamine, 0.05 g ferric nitrate and 2 mg cocarboxylase per 100 mL deionized water filter sterilized through 0.2 μm syringe filters). Following incubation at 36° C. and 5% CO2 to allow growth of colonies, strains are aseptically sub-cultured from original agar plate onto 3 agar plates per strain 24 hours before inoculum preparation. 2-fold serial dilutions of test compounds are conducted in a 96 well plate with a final volume of 150 μL per well at 4/3-fold the final desired concentration. For preparation of assay inoculum, a direct suspension is prepared by aseptically swabbing all colonies from sub-cultured agar plates into culture tubes containing 2 mL of fresh GC broth with […]. After the dilution plates are set up, direct suspensions are then diluted in a cuvette containing GC broth (15 g proteose peptone 43, 1 g corn starch, 4 g dipotassium phosphate, 1 g monopotassium phosphate and 5 g sodium chloride per liter of deionized water are mixed on a stir plate for 20 minutes, pH adjusted to 7.2+/−0.2 pH units with 1 N HCl, centrifuged at 10,000×g for 20 minutes to pellet undissolved corn starch and then autoclaved at 121° C. for 20 minutes to sterilize) and the optical density is measured at 600 nm. Inocula are diluted such that 50 μL of this culture in […] results in a starting bacterial concentration of 5×10^5 CFU/mL when added to the dilution plates. The plates are incubated 40-42 hours at 36° C. and 5% CO2. The MIC is read visually as the lowest concentration well with no bacterial growth.

N. gonorrhoeae FA19 = assay: Liquid broth MIC, N. gonorrhoeae FA19; format: cell-based; conditions: Neisseria gonorrhoeae; N. gonorrhoeae FA19, liquid broth; read-out: Minimum Inhibitory Concentration, N. gonorrhoeae FA19
Experimental: as §1

E. coli ATCC 25922 = assay: Broth microdilution MIC, E. coli ATCC 25922; format: cell-based; conditions: Escherichia coli
Procedure, shortened: (§2)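 Strains are tested by standard CLSI broth microdilution. Log-phase cells, diluted by OD600 to 5×10^5 CFU/mL, meet 2-fold compound series and incubate 16-20 hours at 37° C before the lowest growth-free concentration is recorded.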

N. gonorrhoeae FA1090 = assay: Liquid broth MIC, N. gonorrhoeae FA1090; format: cell-based; conditions: Neisseria gonorrhoeae; N. gonorrhoeae FA1090, liquid broth; read-out: Minimum Inhibitory Concentration, N. gonorrhoeae FA1090
Experimental: as §1

[1] = tested on: N. gonorrhoeae ATCC 49226; assay: Liquid broth MIC, N. gonorrhoeae ATCC 49226; format: cell-based; conditions: Neisseria gonorrhoeae, ATCC49226; N. gonorrhoeae ATCC 49226, liquid broth; read-out: Minimum Inhibitory Concentration, N. gonorrhoeae ATCC 49226
Experimental: as §1

E. coli AG100 = assay: Broth microdilution MIC, E. coli AG100 (wild-type parent); format: cell-based; conditions: Escherichia coli; wild-type parent E. coli AG100, broth microdilution; read-out: MIC E. coli AG100
Procedure, shortened: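 Broth microdilution in cation-supplemented Mueller-Hinton broth, 2-fold serial compound dilutions, inoculum 5×10^5 CFU/mL from 3-5 h log culture.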

E. coli 901C = assay: microbe, parasite or virus in culture; format: cell-based; conditions: Escherichia coli; hyper-permeable E. coli 901C, broth microdilution; read-out: MIC E. coli 901C
Procedure, shortened: as §2

K. pneumoniae UMM = assay: microbe, parasite or virus in culture; format: cell-based; conditions: Klebsiella pneumoniae; K. pneumoniae UMM producing SHV-5 and KPC-2; read-out: MIC K. pneumoniae UMM
Procedure, shortened: as §2

E. coli AG100A = assay: microbe, parasite or virus in culture; format: cell-based; conditions: Escherichia coli, read-out: MIC E. coli AG100A
Procedure, shortened: as §2

E. coli PBP3 = E. coli PBP3 (Escherichia coli (strain K12), UniProt P0AD68); assay: E. coli PBP3 Bocillin-FL fluorescence polarization competition binding assay
Chain of E. coli PBP3 (P0AD68 whole entry): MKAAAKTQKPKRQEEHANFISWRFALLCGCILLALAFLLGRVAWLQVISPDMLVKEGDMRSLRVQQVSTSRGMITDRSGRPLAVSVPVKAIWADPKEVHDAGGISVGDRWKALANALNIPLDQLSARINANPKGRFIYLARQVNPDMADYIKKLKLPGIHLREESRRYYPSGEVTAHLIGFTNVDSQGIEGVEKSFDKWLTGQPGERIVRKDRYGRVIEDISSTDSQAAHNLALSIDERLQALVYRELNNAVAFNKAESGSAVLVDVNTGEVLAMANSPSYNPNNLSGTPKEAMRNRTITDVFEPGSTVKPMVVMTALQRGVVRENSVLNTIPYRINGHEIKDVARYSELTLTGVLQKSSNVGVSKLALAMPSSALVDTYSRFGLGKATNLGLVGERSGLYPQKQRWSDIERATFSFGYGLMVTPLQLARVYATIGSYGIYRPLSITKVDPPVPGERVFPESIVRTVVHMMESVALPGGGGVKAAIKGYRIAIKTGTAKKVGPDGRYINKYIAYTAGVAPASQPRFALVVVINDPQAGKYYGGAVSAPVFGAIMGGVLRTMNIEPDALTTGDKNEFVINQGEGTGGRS
Procedure, shortened: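 Competition against 0.1 μM Bocillin-FL for binding to 1.5 μM purified protein, read by fluorescence polarization for 60 min. Compounds tested from 0 to 1000 μM; EC50 taken as the concentration reducing probe binding.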

K. pneumoniae 848844 = assay: microbe, parasite or virus in culture; format: cell-based, Klebsiella pneumoniae; conditions: Klebsiella pneumoniae; K. pneumoniae 848844 producing SHV-11 and KPC-2; read-out: MIC K. pneumoniae 848844
Procedure, shortened: as §2

K. pneumoniae SI-117 = assay: microbe, parasite or virus in culture; format: cell-based; conditions: Klebsiella pneumoniae, SI117, read-out: MIC K. pneumoniae SI-117
Procedure, shortened: as §2

E. coli D22 = assay: microbe, parasite or virus in culture; format: cell-based; conditions: Escherichia coli; hyper-permeable E. coli D22, broth microdilution; read-out: MIC E. coli D22
Procedure, shortened: as §2

[2] = ATCC25922, E. coli ATCC 25922, broth microdilution, read-out: MIC E. coli 25922

| Structure (SMILES) | MIC (N. gonorrhoeae WHO F) | MIC (N. gonorrhoeae FA19) | MIC (E. coli ATCC 25922; [2]) | MIC (N. gonorrhoeae FA1090) | MIC [1] | MIC (E. coli AG100) | MIC (E. coli 901C) | MIC (K. pneumoniae UMM) | MIC (E. coli AG100A) | pEC50 (E. coli PBP3) | MIC (K. pneumoniae 848844) | MIC (K. pneumoniae SI-117) | MIC (E. coli D22) | pEC50 (E. coli PBP3; fluorescence polarization competition binding with Bocillin-FL, read-out: E. coli K12 PBP3 Potency) | MIC (E. coli ATCC 25922; ATCC25922, read-out: MIC E. coli 25922) |
| --- | --- | --- | --- | --- | --- | --- | --- | --- | --- | --- | --- | --- | --- | --- | --- |
| CCN1CCN(C(=O)N[C@@H](C(=O)N[C@H]2Cc3cccc(C(=O)O)c3OB2O)c2ccc(O)c(O)c2)C(=O)C1=O [Example 39, (R)-3-((R)-2-(3,4-dihydroxyphenyl)-2-(4-ethyl-2,3-dioxopiperazine-1-carboxamido)acetamido)-2-hydroxy-3,4-dihydro-2H-benzo[e][1,2]oxaborinine-8-carboxylic acid] | 0.25 to 0.5 µg/mL (≈ 0.463 to 0.925 µM) | 1 to 2 µg/mL (≈ 1.85 to 3.7 µM) | 8 to 16 µg/mL | < 0.125 µg/mL | 1 to 2 µg/mL (≈ 1.85 to 3.7 µM) | 8 to 16 µg/mL | 0.5 to 1 µg/mL | 8 to 16 µg/mL | 2 to 4 µg/mL |  |  |  |  |  |  |
| CCN1CCN(C(=O)NC(C(=O)N[C@H]2Cc3cccc(C(=O)O)c3OB2O)c2ccsc2)C(=O)C1=O (stereo partly drawn) [Example 137, (3R)-3-(2-(4-ethyl-2,3-dioxopiperazine-1-carboxamido)-2-(thiophen-3-yl)acetamido)-2-hydroxy-3,4-dihydro-2H-benzo[e][1,2]oxaborinine-8-carboxylic acid] | < 0.125 µg/mL | 4 to 8 µg/mL (≈ 7.78 to 15.6 µM) |  | < 0.125 µg/mL | 1 to 2 µg/mL (≈ 1.94 to 3.89 µM) |  |  |  |  | 3.30 to 4.52 |  |  |  |  |  |
| CCN1CCN(C(=O)NC(C(=O)N[C@H]2Cc3ccc(F)c(C(=O)O)c3OB2O)c2cnc(N)s2)C(=O)C1=O (stereo partly drawn) [Example 152, (3R)-3-(2-(2-aminothiazol-5-yl)-2-(4-ethyl-2,3-dioxopiperazine-1-carboxamido)acetamido)-7-fluoro-2-hydroxy-3,4-dihydro-2H-benzo[e][1,2]oxaborinine-8-carboxylic acid] | 0.25 to 0.5 µg/mL (≈ 0.456 to 0.912 µM) | 1 to 2 µg/mL (≈ 1.82 to 3.65 µM) |  | 0.25 to 0.5 µg/mL (≈ 0.456 to 0.912 µM) | 1 to 2 µg/mL (≈ 1.82 to 3.65 µM) |  |  |  |  | 3.30 to 4.52 |  |  |  |  |  |
| Nc1ncc(C(NC(=O)N2CCN(CCF)C(=O)C2=O)C(=O)N[C@H]2Cc3ccc(F)c(C(=O)O)c3OB2O)s1 (stereo partly drawn) [Example 153, (3R)-3-(2-(2-aminothiazol-5-yl)-2-(4-(2-fluoroethyl)-2,3-dioxopiperazine-1-carboxamido)acetamido)-7-fluoro-2-hydroxy-3,4-dihydro-2H-benzo[e][1,2]oxaborinine-8-carboxylic acid] | 0.25 to 0.5 µg/mL (≈ 0.441 to 0.883 µM) | 1 to 2 µg/mL (≈ 1.77 to 3.53 µM) |  | 0.25 to 0.5 µg/mL (≈ 0.441 to 0.883 µM) | 1 to 2 µg/mL (≈ 1.77 to 3.53 µM) |  |  |  |  | 3.30 to 4.52 |  |  |  |  |  |
| CCN1CCN(C(=O)N[C@H](C(=O)N[C@H]2Cc3ccc(F)c(C(=O)O)c3OB2O)c2ccc(O)c(F)c2)C(=O)C1=O [Example 160, (R)-3-((S)-2-(4-ethyl-2,3-dioxopiperazine-1-carboxamido)-2-(3-fluoro-4-hydroxyphenyl)acetamido)-7-fluoro-2-hydroxy-3,4-dihydro-2H-benzo[e][1,2]oxaborinine-8-carboxylic acid] | 0.25 to 0.5 µg/mL (≈ 0.446 to 0.892 µM) | 16 to 32 µg/mL (≈ 28.6 to 57.1 µM) | > 128 µg/mL | 0.25 to 0.5 µg/mL (≈ 0.446 to 0.892 µM) | 16 to 32 µg/mL (≈ 28.6 to 57.1 µM) | > 128 µg/mL | 2 to 4 µg/mL | > 128 µg/mL | > 128 µg/mL | 3.30 to 4.52 | > 128 µg/mL | > 128 µg/mL | 32 to 64 µg/mL |  |  |
| O=C(O)c1cccc2c1OB(O)[C@@H](NC(=O)C(NC(=O)N1CCN(CCF)C(=O)C1=O)c1ncc(O)cc1F)C2 (stereo partly drawn) [Example 179, (3R)-3-(2-(3-fluoro-5-hydroxypyridin-2-yl)-2-(4-(2-fluoroethyl)-2,3-dioxopiperazine-1-carboxamido)acetamido)-2-hydroxy-3,4-dihydro-2H-benzo[e][1,2]oxaborinine-8-carboxylic acid] | < 0.125 µg/mL | 4 to 8 µg/mL (≈ 7.13 to 14.3 µM) | 8 to 16 µg/mL | < 0.125 µg/mL | 0.25 to 0.5 µg/mL (≈ 0.445 to 0.891 µM) | 8 to 16 µg/mL | < 0.25 µg/mL | 2 to 4 µg/mL | 0.5 to 1 µg/mL |  | 32 to 64 µg/mL | 8 to 16 µg/mL | 0.5 to 1 µg/mL | > 4.52 |  |
| CCN1CCN(C(=O)NC(C(=O)N[C@H]2Cc3cccc(C(=O)O)c3OB2O)c2ccc(C(N)=O)cc2)C(=O)C1=O (stereo partly drawn) [Example 186, (3R)-3-(2-(4-carbamoylphenyl)-2-(4-ethyl-2,3-dioxopiperazine-1-carboxamido)acetamido)-2-hydroxy-3,4-dihydro-2H-benzo[e][1,2]oxaborinine-8-carboxylic acid] | < 0.125 µg/mL | 1 to 2 µg/mL (≈ 1.81 to 3.63 µM) | 32 to 64 µg/mL | < 0.125 µg/mL | 1 to 2 µg/mL (≈ 1.81 to 3.63 µM) | 8 to 16 µg/mL | < 0.25 µg/mL | 32 to 64 µg/mL | 2 to 4 µg/mL | 3.30 to 4.52 | > 128 µg/mL | > 128 µg/mL | 0.5 to 1 µg/mL |  |  |
| CCN1CCN(C(=O)NC(C(=O)N[C@H]2Cc3cccc(C(=O)O)c3OB2O)c2ncc(OC(C)=O)cc2F)C(=O)C1=O (stereo partly drawn) [Example 207, (3R)-3-(2-(5-acetoxy-3-fluoropyridin-2-yl)-2-(4-ethyl-2,3-dioxopiperazine-1-carboxamido)acetamido)-2-hydroxy-3,4-dihydro-2H-benzo[e][1,2]oxaborinine-8-carboxylic acid] | < 0.125 µg/mL | 1 to 2 µg/mL (≈ 1.71 to 3.42 µM) |  | < 0.125 µg/mL | 0.25 to 0.5 µg/mL (≈ 0.427 to 0.854 µM) | 8 to 16 µg/mL | < 0.25 µg/mL | 8 to 16 µg/mL | 0.5 to 1 µg/mL |  | 32 to 64 µg/mL | 32 to 64 µg/mL | 0.5 to 1 µg/mL |  | 8 to 16 µg/mL |
| CCN1CCN(C(=O)NC(C(=O)N[C@H]2Cc3ccc(Cl)c(C(=O)O)c3OB2O)c2csc(N)n2)C(=O)C1=O (stereo partly drawn) [Example 215, (3R)-3-(2-(2-aminothiazol-4-yl)-2-(4-ethyl-2,3-dioxopiperazine-1-carboxamido)acetamido)-7-chloro-2-hydroxy-3,4-dihydro-2H-benzo[e][1,2]oxaborinine-8-carboxylic acid] | 0.25 to 0.5 µg/mL (≈ 0.443 to 0.885 µM) | 4 to 8 µg/mL (≈ 7.08 to 14.2 µM) |  | 1 to 2 µg/mL (≈ 1.77 to 3.54 µM) | 4 to 8 µg/mL (≈ 7.08 to 14.2 µM) |  |  |  |  | 3.30 to 4.52 |  |  |  |  |  |
